Assay results reported in patent US11564920B2, “5-heteroaryl-1H-pyrazol-3-amine derivative” (Sumitomo Pharma Co., Ltd., priority 2020, dated 2023).
pIC50: −log10 of the molar value. Entries after “also recorded” stand apart in the source; their conditions may differ.

Assays:
[1] = Pharmacokinetic test in mice; assay type: in vivo; conditions: female, BALB/c, mouse, whole blood, iv, liposome formulations, 1.0 mg/kg i.v., trapezoidal method
CHK1 [2] = target: T1, CHK1 (Homo sapiens (Human), UniProt O14757); experiment: CHK1 inhibitory activity test (IMAP TR-FRET); assay type: biochemical
Description: IMAP TR-FRET Screening Express Kit (R8160) was obtained from Molecular Devices. […] FAM-PKAtide (R7255, Molecular Devices) and FAM-Phospho-PKAtide (R7304, Molecular Devices) were admixed after dilution, and calibration standard systems for phosphorylation levels from 0 to 100% were created. 5 μL of a compound dissolved in a 0.4% DMSO solution was added to a 384 well plate. A compound study group to which 5 μL of each of CHK1, CHK1tide, and ATP was added, and a standard group to which 20 μL of standard was added were created, and subjected to a kinase reaction for 3 hours at 30° C. Subsequently, 60 μL of Binding Reagent (80% Buffer A, 20% Buffer B, 1:600 Binding Reagent, 1:400 Tb-Donor) was added for a binding reaction for 2 hours at room temperature.

[3] = test system: Human bone marrow CD34 positive hematopoietic stem cells; experiment: Human bone marrow cell colony formation test (hemotoxicological evaluation test); assay type: cell-based; conditions: 100 nM; for Colony count (/well), mean: 48 hours, then about 2 weeks culture
Description: Human bone marrow CD34 positive hematopoietic stem cells were obtained from Lonza K. K. The frozen cells were thawed in a medium prepared by mixing a Methocult Express medium and a 10% fetal bovine serum with 1% penicillin/streptomycin containing RPMI 1640 medium at 9:1. 5000 cells were seeded per well in a 6 well plate and cultured overnight at […] in the presence of 5% CO2. The evaluated compound was added so that the final concentration of DMSO would be 0.1% and 100 nM, and the cells were cultured for 48 hours. The cells were retrieved and washed with PBS. ⅙ of the amount of cells was seeded in a 12 well plate and cultured for about. 2 weeks at 37° C. in the presence of 5% CO2. After completion of culture, the number of colonies formed was calculated using Thiazolyl blue tetrazolium bromide (MTT).

CHK1 [4] = target: T1, CHK1; experiment: Kinase selectivity test (HotSpot Full Panel Kinase profiling); assay type: biochemical; conditions: 100 nM, ATP 10 μM; read-out: Residual activity (%) CHK1
Description: (§1) Buffer: 20 mM HEPES, pH 7.5, 10 mM MgCl2, 2 mM […] (as needed), 1 mM EGTA, 0.02% Brij35, 0.02 mg/mL BSA, 0.1 mM Na3VO4, 2 mM DTT, 1% DMSO
(§2) Compound concentration: 100 nM

[5] = test system: Human bone marrow CD34 positive hematopoietic stem cells; experiment: Human bone marrow cell myeloid lineage differentiation induction test; assay type: cell-based; conditions: 3 nM
Description: Human bone marrow CD34 positive hematopoietic stem cells were obtained from Lonza K. K. The frozen cells were thawed in a […] fetal bovine serum containing IMDM medium and suspended in a Complete hemaTox® Myeloid Medium. 1000 cells were seeded per well in a 96-well plate. The evaluated compound was added so that the final concentration of DMSO would be […] and 3 nM, and the cells were cultured for 7 days at 37° C. in the presence of 5% CO2. After completion of culture, half of the amount of cell suspension was retrieved from each well. The luminescence was measured using CellTiter-Glo® 3D Reagent (Promega, G968B) to calculate the cell survival percentage by the following equation. Cell survival percentage (%)=(measurement value of luminescence after 7 days of evaluated compound)/(measurement value of luminescence after 7 days of control group)×100

BRSK1 = BRSK1 (Homo sapiens (Human), UniProt Q8TDC3); experiment: Kinase selectivity test (HotSpot Full Panel Kinase profiling); assay type: biochemical; conditions: 100 nM, ATP 10 μM; read-out: Residual activity (%) BRSK1
Description: as §1, §2

CHK2 = CHK2 (Homo sapiens (Human), UniProt O96017); experiment: as above; assay type: biochemical; conditions: 100 nM, ATP 10 μM; read-out: Residual activity (%) CHK2
Description: as §1, §2

CDK8/CYCLIN C = CDK8/CYCLIN C (Homo sapiens (Human), UniProt P49336); experiment: as above; assay type: biochemical; conditions: 100 nM, ATP 10 μM; read-out: Residual activity (%) CDK8/CYCLIN C
Description: as §1, §2

BRSK2 = BRSK2 (Homo sapiens (Human), UniProt Q8IWQ3); experiment: as above; assay type: biochemical; conditions: 100 nM, ATP 10 μM; read-out: Residual activity (%) BRSK2
Description: as §1, §2

MARK3 = MARK3 (Homo sapiens (Human), UniProt P27448); experiment: as above; assay type: biochemical; conditions: 100 nM, ATP 10 μM; read-out: Residual activity (%) MARK3
Description: as §1, §2

ARKS/NUAK1 = ARKS/NUAK1 (Homo sapiens (Human), UniProt O60285); experiment: as above; assay type: biochemical; conditions: 100 nM, ATP 10 μM; read-out: Residual activity (%) ARKS/NUAK1
Description: as §1, §2

LOK/STK10 = LOK/STK10 (Homo sapiens (Human), UniProt O94804); experiment: as above; assay type: biochemical; conditions: 100 nM, ATP 10 μM; read-out: Residual activity (%) LOK/STK10
Description: as §1, §2

MARK1 = MARK1 (Homo sapiens (Human), UniProt Q9P0L2); experiment: as above; assay type: biochemical; conditions: 100 nM, ATP 10 μM; read-out: Residual activity (%) MARK1
Description: as §1, §2

CAMK2D = CAMK2D (Homo sapiens (Human), UniProt Q13557); experiment: as above; assay type: biochemical; conditions: 100 nM, ATP 10 μM; read-out: Residual activity (%) CAMK2D
Description: as §1, §2

MARK2/PAR-1BA = MARK2/PAR-1BA (Homo sapiens (Human), UniProt Q7KZI7); experiment: as above; assay type: biochemical; conditions: 100 nM, ATP 10 μM; read-out: Residual activity (%) MARK2/PAR-1BA (PAR-18A in Table 33)
Description: as §1, §2

T1 sequence (O14757 whole entry): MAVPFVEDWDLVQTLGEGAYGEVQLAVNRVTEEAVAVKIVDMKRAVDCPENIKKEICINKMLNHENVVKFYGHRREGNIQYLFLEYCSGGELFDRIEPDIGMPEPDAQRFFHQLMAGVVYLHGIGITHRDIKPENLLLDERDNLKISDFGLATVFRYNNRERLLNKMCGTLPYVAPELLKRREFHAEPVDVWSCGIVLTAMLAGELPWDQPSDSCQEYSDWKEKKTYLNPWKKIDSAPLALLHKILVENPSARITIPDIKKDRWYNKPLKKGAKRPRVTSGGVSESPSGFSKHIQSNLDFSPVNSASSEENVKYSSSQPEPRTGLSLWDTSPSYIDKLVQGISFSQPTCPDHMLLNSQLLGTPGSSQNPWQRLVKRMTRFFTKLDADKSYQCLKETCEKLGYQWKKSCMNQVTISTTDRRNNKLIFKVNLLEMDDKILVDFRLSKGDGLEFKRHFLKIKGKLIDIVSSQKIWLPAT
Chain of BRSK2 (Q8IWQ3 whole entry): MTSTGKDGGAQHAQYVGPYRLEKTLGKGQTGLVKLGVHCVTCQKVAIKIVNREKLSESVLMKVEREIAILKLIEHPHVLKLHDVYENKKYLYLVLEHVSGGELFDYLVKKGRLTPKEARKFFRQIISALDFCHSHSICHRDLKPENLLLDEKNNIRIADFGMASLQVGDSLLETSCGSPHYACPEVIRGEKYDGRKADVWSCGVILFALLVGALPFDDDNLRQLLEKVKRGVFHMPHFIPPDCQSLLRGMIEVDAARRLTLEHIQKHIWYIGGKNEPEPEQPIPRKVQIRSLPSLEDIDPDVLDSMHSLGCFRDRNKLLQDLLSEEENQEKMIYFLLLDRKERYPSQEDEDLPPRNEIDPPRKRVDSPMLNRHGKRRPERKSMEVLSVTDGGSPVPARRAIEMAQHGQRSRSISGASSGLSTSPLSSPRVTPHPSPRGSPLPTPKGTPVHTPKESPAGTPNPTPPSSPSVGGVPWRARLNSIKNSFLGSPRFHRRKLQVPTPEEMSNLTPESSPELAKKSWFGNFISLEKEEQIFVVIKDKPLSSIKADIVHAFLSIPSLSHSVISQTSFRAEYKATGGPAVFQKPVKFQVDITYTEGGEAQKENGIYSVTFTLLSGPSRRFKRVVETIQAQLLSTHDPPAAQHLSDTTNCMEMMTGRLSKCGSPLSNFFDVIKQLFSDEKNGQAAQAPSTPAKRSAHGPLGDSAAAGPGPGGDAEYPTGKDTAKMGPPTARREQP
Chain of LOK/STK10 (O94804 whole entry): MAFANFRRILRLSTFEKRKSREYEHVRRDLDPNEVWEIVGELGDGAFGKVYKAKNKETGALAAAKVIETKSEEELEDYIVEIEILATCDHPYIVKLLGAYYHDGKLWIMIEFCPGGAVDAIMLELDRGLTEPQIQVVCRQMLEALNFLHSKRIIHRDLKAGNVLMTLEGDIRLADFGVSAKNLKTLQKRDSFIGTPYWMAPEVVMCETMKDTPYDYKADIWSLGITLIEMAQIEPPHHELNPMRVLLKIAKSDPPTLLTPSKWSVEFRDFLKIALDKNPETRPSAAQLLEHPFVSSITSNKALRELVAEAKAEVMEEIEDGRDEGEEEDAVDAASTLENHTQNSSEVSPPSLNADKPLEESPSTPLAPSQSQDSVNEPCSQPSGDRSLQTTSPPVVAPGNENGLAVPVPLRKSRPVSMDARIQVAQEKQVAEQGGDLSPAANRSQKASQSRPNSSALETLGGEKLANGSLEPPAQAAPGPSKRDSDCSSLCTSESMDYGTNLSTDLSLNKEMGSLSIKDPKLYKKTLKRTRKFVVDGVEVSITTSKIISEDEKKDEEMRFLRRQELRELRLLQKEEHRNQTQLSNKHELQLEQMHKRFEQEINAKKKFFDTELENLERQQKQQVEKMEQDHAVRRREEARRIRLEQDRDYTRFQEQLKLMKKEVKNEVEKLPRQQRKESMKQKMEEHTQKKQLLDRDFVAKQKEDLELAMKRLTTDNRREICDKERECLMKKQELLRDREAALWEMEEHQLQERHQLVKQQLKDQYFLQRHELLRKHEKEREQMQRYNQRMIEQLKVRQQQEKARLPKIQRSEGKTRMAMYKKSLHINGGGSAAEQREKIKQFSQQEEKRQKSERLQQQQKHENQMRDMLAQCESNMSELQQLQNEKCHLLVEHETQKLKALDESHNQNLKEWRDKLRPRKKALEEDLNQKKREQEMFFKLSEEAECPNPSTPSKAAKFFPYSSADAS
Chain of ARKS/NUAK1 (O60285 whole entry): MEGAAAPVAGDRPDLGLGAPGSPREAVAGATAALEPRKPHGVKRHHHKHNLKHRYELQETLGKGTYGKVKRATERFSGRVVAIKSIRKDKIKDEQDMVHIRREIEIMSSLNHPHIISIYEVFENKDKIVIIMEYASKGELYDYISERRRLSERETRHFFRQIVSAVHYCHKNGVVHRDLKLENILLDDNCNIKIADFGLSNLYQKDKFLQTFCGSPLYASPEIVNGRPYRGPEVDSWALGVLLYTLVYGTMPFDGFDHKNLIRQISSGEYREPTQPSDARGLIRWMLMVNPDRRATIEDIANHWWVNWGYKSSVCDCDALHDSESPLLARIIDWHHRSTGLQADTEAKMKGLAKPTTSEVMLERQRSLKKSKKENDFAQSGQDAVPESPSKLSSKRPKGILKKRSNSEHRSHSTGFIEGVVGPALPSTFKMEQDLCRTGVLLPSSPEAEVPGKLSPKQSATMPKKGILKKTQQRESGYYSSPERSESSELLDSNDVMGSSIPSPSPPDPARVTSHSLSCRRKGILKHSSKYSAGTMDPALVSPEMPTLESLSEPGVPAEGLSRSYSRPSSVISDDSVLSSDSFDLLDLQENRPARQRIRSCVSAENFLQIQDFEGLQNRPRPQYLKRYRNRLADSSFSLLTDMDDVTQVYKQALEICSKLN
Chain of CDK8/CYCLIN C (P49336 whole entry): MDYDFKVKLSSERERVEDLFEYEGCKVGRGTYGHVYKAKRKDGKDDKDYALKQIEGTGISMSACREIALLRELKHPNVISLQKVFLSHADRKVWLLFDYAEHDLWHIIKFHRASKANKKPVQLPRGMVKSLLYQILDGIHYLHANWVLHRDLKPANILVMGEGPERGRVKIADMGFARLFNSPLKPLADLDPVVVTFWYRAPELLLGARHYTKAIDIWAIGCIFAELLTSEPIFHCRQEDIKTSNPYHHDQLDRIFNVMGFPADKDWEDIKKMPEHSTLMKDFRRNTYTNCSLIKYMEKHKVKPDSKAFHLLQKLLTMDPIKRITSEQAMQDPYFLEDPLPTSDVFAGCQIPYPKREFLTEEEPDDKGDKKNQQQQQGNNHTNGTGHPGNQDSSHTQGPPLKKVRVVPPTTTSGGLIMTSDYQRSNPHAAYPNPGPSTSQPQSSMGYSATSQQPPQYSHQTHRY
Chain of CDK8/CYCLIN C (P24863 whole entry partner): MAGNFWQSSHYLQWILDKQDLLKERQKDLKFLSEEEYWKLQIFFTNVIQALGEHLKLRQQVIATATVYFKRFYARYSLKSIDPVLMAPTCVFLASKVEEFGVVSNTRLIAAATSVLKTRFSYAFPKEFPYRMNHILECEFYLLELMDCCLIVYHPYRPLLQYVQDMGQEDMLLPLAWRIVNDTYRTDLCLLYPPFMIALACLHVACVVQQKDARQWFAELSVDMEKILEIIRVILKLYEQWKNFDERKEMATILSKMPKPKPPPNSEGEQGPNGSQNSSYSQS
Chain of MARK2/PAR-1BA (Q7KZI7 other isoform, or with tags, fused parts or gaps isoform Q7KZI7-4): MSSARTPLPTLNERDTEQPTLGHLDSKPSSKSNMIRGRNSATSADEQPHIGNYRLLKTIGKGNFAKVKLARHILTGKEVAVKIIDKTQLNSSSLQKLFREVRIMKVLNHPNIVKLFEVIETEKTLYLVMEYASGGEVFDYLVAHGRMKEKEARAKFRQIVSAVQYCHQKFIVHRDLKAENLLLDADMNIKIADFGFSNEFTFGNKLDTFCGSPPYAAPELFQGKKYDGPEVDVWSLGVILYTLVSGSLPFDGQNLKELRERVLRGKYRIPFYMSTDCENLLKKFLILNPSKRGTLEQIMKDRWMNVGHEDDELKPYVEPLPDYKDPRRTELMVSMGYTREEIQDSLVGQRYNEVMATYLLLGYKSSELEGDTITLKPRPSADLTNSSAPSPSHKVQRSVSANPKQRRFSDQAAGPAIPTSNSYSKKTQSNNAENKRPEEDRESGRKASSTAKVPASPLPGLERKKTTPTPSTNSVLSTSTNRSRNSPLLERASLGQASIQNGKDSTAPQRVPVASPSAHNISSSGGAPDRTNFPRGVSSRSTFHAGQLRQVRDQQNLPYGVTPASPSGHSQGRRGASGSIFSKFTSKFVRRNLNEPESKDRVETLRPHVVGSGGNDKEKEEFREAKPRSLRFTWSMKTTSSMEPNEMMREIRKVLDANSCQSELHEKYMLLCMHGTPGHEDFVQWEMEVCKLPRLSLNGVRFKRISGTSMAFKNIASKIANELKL
Chain of CHK2 (O96017 whole entry): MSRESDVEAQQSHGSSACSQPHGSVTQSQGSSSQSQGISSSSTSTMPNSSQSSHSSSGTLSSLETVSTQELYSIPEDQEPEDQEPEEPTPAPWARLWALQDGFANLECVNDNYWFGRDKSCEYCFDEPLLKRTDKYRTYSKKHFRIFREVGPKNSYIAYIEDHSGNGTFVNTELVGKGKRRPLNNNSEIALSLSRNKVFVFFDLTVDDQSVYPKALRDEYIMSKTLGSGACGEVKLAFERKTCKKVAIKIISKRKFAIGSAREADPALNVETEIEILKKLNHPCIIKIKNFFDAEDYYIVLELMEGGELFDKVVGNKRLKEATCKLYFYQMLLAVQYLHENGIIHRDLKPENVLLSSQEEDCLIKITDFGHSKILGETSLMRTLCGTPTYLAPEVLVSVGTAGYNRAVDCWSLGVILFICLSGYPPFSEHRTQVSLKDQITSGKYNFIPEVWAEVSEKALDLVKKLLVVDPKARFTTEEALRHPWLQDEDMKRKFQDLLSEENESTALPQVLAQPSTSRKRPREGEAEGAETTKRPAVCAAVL

Compound	AUC(0-t) [1] [µg·h/mL]	CHK1 inhibitory activity relative to prexasertib (CHK1 [2]) [fold]	pIC50 (CHK1 [2])	effect of suppressing CHK1 activity (in words) (CHK1 [2]; compared with prexasertib)	inhibition at 0.0001 µM (CHK1 [2]; read-out: CHK1 inhibition % at 0.1 nM) [%]	effect on human bone marrow cell colony formation (in words) [3]	Colony count (/well), mean [3]	remaining activity at 0.1 µM (CHK1 [4]) [%]	effect on myeloid cells induced to differentiate from human bone marrow cells (in words) [5]	remaining activity at 0.1 µM (BRSK1) [%]	remaining activity at 0.1 µM (CHK2) [%]	remaining activity at 0.1 µM (CDK8/CYCLIN C) [%]	remaining activity at 0.1 µM (BRSK2) [%]	remaining activity at 0.1 µM (MARK3) [%]	remaining activity at 0.1 µM (ARKS/NUAK1) [%]	remaining activity at 0.1 µM (LOK/STK10) [%]	remaining activity at 0.1 µM (MARK1) [%]	remaining activity at 0.1 µM (CAMK2D) [%]	remaining activity at 0.1 µM (MARK2/PAR-1BA) [%]
COc1ccnc(OCCCN)c1-c1cc(Nc2cnc(C#N)cn2)n[nH]1 [Example 1, 5-({5-[2-(3-aminopropoxy)-4-methoxypyridin-3-yl]-1H-pyrazol-3-yl}amino)pyrazine-2-carbonitrile]	447	≥ 5	> 10.00	more potent effect of suppressing CHK1 activity than prexasertib; also recorded: especially potently suppressing CHK1 activity	55	does not exhibit an effect of suppressing human bone marrow colony formation	34 /well	2.87	does not exhibit an effect of suppressing myeloid cells induced to differentiate from human bone marrow cells										
COc1cccc(OCCCN)c1-c1cc(Nc2cnc(C#N)cn2)n[nH]1 [Prexasertib, reference compound]	236					exhibits an effect of suppressing human bone marrow cell colony formation	19 /well		exhibited an effect of suppressing myeloid cells induced to differentiate from human bone marrow cells	21.7	6.41	18.1	14.4	12.6	17.9	6.15	14.1	6.07	14.3
